“And” between values parts separate entries of the source, which are not always exact repeats. Equal entries are not always repeated.
Assays:
Assay type in all cases: cell-based
ERα [1] = target: T1, ERα (Homo sapiens, UniProt P03372); assay: Degradation of ERα in T-47D cells (immunoblotting, 4 h); parameters: host or cells: T-47D
T1 sequence (P03372 1-595): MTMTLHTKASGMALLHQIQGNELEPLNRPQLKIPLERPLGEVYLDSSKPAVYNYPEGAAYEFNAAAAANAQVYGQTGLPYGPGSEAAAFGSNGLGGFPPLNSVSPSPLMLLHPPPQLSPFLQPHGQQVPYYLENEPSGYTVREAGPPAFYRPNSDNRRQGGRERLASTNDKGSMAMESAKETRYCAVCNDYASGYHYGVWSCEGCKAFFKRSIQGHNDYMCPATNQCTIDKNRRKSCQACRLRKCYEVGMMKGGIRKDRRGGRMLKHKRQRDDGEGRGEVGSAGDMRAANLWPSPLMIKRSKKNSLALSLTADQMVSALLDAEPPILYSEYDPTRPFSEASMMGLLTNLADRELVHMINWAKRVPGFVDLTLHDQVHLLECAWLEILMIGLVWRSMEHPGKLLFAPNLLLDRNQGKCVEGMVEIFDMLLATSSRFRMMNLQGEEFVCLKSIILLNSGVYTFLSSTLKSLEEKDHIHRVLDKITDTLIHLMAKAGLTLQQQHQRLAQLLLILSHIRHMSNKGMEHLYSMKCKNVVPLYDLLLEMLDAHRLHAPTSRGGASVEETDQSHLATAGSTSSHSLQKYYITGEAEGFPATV
Summary of the method: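 T-47D cells were treated with compound (final 0.15-1000 nM, DMSO) for 4 h at 37°C, 5% CO2. Cells were lysed in RIPA buffer with protease inhibitor, and ERα protein in the cleared lysate was measured by immunoblotting.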

T-47D cells = assay: Inhibition of cell proliferation in T-47D cells (CCK-8, 6 days); conditions: 6 days of treatment
Excerpt: Test Example 2: Inhibitory effect of the PROTAC compounds provided in the present disclosure on cell proliferation in T-47D cells (source ATCC)
The complete medium required for T-47D cells was 1640 ( ATCC, Product number: A10491-01) basal medium containing 10% fetal bovine serum. T-47D cells were inoculated in 96-well plates at a density of 3,000 cells/well, and different concentrations of the PROTAC compounds 1-55 provided in the examples of the present disclosure and a positive control sample ARV-471 (source: Innochem) were prepared to treat cells, and the cells were treated at 37°C in a cell culture incubator with 5% CO2 for 6 days. Cell viability was detected using a CCK-8 kit (Beyotime, Product number: C0040) according to the manufacturer's instructions. […] Table 2 IC50 values for inhibition of the proliferation of T-47D cells by the PROTAC compounds provided by the present disclosure and the positive control sample

ERα [2] = target: T1, ERα; assay: Degradation of ERα in MCF-7 cells (immunoblotting, 4 h)
Summary of the method: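 MCF-7 cells treated 4 h at 37°C with compounds at 0.15-1000nM final. ERα in lysates measured by immunoblot, with band grayscale normalized to an internal reference protein. Degradation rate calculated against DMSO-treated control.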

MCF-7 cells = assay: Inhibition of cell proliferation of MCF-7 cells (CCK-8, 9 days)
Summary of the method: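 MCF-7 cells seeded at 800 cells/well in DMEM with 10% FBS, exposed to a range of compound concentrations for 9 days at 37°C, 5% CO2. Viability read by CCK-8; IC50 derived for proliferation inhibition.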

[3] = treated for 9 days, CCK-8 kit (Table 6)
[4] = 9 days of treatment, CCK-8, Table 5

SMILES	Degradation rate (%) of ERα in T-47D cells (ERα [1]; 1nM compound)	Degradation rate (%) of ERα in T-47D cells (ERα [1]; 10nM compound)	IC50 (T-47D cells; Table 3)	Degradation rate (%) of ERα in MCF-7 cells (ERα [2]; 1nM compound)	Degradation rate (%) of ERα in MCF-7 cells (ERα [2]; 10nM compound)	IC50 (MCF-7 cells; [3])	IC50 (T-47D cells; Table 2)	IC50 (MCF-7 cells; [4])
C[C@@H]1Cc2c([nH]c3ccccc23)[C@@H](c2c(F)cc(N3CCC4(CCN(CC(=O)N5CCC6(CC5)COc5c6ccc6c5CN(C5CCC(=O)NC5=O)C6=O)CC4)CC3)cc2F)N1CC(F)F (stereo partly drawn) [A112]	40%	78%	2.01 nM	15%	63%	59.4 nM		
O=C1CCC(N2Cc3cc4c(cc3C2=O)OCC2(CCN(CC3CCC5(CC3)CCN(c3ccc([C@@H]6c7ccc(O)cc7CC[C@@H]6c6ccccc6)cc3)CC5)CC2)O4)C(=O)N1 (stereo partly drawn) [A39]	11%	6%	41 nM	-16%	-27%	30 nM		
CN(CC(=O)N1CC2(CCc3cc4c(cc3O2)C(=O)N(C2CCC(=O)NC2=O)C4)C1)C1CCC2(CC1)CN(c1ccc([C@@H]3c4ccc(O)cc4CC[C@@H]3c3ccccc3)cc1)C2 (stereo partly drawn) [C18]	24%	50%	11.1 nM	10%	29%	11400 nM		
C[C@@H]1CN(C(=O)C2(F)CCN(c3ccc([C@@H]4c5ccc(O)cc5CC[C@@H]4c4ccccc4)cc3)CC2)CCC1N1CCC2(CC1)COc1c2ccc2c1CN(C1CCC(=O)NC1=O)C2=O (stereo partly drawn) [A96]	31%	78%	3.38 nM	40%	66%	11 nM		
O=C1CCC(N2C(=O)c3ccc4c(c3C2=O)OC2(CC4)CCN(C3CCC4(CC3)CN(c3ccc([C@@H]5c6ccc(O)cc6CC[C@@H]5c5ccccc5)cc3)C4)CC2)C(=O)N1 (stereo partly drawn) [L8]	32%	21%	13.5 nM	27%	27%	990 nM		
O=C1CCC(N2Cc3c(ccc4c3OCC43CCN(C4CC5(CCC6(CC5)CN(C5CCN(c7ccc([C@@H]8c9ccc(O)cc9CC[C@@H]8c8ccccc8)cc7)CC5)C6)C4)CC3)C2=O)C(=O)N1 (stereo partly drawn) [K16]			3 nM			320 nM and 214 nM		
O=C1CCC(N2C(=O)c3cc4c(cc3C2=O)OC2(CC4)CN(CC3CCC4(CC3)CN(c3ccc([C@@H]5c6ccc(O)cc6CC[C@@H]5c5ccccc5)cc3)C4)C2)C(=O)N1 (stereo partly drawn) [M14]	-29%	-17%	30 nM			23 nM		
O=C1CCC(N2C(=O)c3cc4c(cc3C2=O)C2(CCN(C3CC5(CCN(c6ccc(C7c8ccc(O)cc8CCC7c7ccccc7)cc6)CC5)C3)CC2)CO4)C(=O)N1 (stereo not drawn) [A19]		18%			18%		20 nM	
O=C1CCC(N2C(=O)c3cc4c(cc3C2=O)C2(CCN(CC3CCN(c5ccc(C6c7ccc(O)cc7CCC6c6ccccc6)cc5)C3)CC2)CO4)C(=O)N1 (stereo not drawn) [B1]		-15%			-35%		38 nM	
O=C1CCC(N2Cc3cc4c(cc3C2=O)CCC2(CCN(C3CC5(CCN(c6ccc([C@@H]7c8ccc(O)cc8CC[C@@H]7c7ccccc7)cc6)CC5)C3)CC2)O4)C(=O)N1 (stereo partly drawn) [M12]			2 nM			12 nM	2 nM	10 nM
O=C1CCC(N2Cc3cc4c(cc3C2=O)OCC2(CCN(C3CC5(CCN(c6ccc([C@@H]7c8ccc(O)cc8CC[C@@H]7c7ccccc7)cc6)CC5)C3)CC2)O4)C(=O)N1 (stereo partly drawn) [M11]	17%	56%					1 nM	20 nM
CC1CC(N2CCC3(CC2)COc2c3ccc3c2CN(C2CCC(=O)NC2=O)C3=O)CCN1C1CCN(c2ccc(C3c4ccc(O)cc4CCC3c3ccccc3)cc2)CC1 (stereo not drawn) [K22]	-3%	19%	8.52 nM			24.3 nM		
CC1(C(=O)N2CCC(N3CCC4(CC3)COc3c4ccc4c3CN(C3CCC(=O)NC3=O)C4=O)CC2)CCN(c2ccc([C@@H]3c4ccc(O)cc4CC[C@@H]3c3ccccc3)cc2)CC1 (stereo partly drawn) [N1]	58%	79%	1.18 nM	54%	68%			
O=C1CCC(N2C(=O)c3cc4c(cc3C2=O)OC2(CC4)CCN(CC3CCN(c4ccc(C5c6ccc(O)cc6CCC5c5ccccc5)cc4)C3)CC2)C(=O)N1 (stereo not drawn) [A9]		-25%			-24%		24 nM	
O=C1CCC(N2C(=O)c3cc4c(cc3C2=O)C2(CCN(CC3CN(c5ccc([C@@H]6c7ccc(O)cc7CC[C@@H]6c6ccccc6)cc5)C3)CC2)CO4)C(=O)N1 (stereo partly drawn) [B3]		-18%			-14%		100 nM	

Continued, values first:

Degradation rate (%) of ERα in T-47D cells (ERα [1]; 1nM compound)	Degradation rate (%) of ERα in T-47D cells (ERα [1]; 10nM compound)	IC50 (T-47D cells; Table 3)	Degradation rate (%) of ERα in MCF-7 cells (ERα [2]; 1nM compound)	Degradation rate (%) of ERα in MCF-7 cells (ERα [2]; 10nM compound)	IC50 (MCF-7 cells; [3])	IC50 (T-47D cells; Table 2)	IC50 (MCF-7 cells; [4])	SMILES
35%	72%	17.1 nM	15%	70%	30.3 nM			C[C@@H]1Cc2c([nH]c3ccccc23)[C@@H](c2c(F)cc(N3CC4(CCC(N5CCC6(CC5)COc5c6ccc6c5CN(C5CCC(=O)NC5=O)C6=O)CC4)C3)cc2F)N1CC(F)F (stereo partly drawn) [A104]
8%	17%	23 nM	-9%	-18%	33 nM			O=C1CCC(N2C(=O)c3cc4c(cc3C2=O)OC2(CC4)CN(CC3CCC4(CC3)CCN(c3ccc([C@@H]5c6ccc(O)cc6CC[C@@H]5c5ccccc5)cc3)CC4)C2)C(=O)N1 (stereo partly drawn) [A41]
15%	64%	3.38 nM	20%	71%	65.2 nM			C[C@H]1CN(C2CC3(CCN(c4ccc([C@@H]5c6ccc(O)cc6CC[C@@H]5c5ccccc5)cc4)CC3)C2)CC[C@H]1N1CCC2(CC1)COc1c2ccc2c1CN(C1CCC(=O)NC1=O)C2=O (stereo partly drawn) [H39]
54%	84%	41 nM	-3%	64%	590 nM			C[C@@H]1Cc2c(ccc3[nH]ncc23)C(c2ccc(N3CCC4(CCC(N5CCC6(CC5)COc5c6ccc6c5CN(C5CCC(=O)NC5=O)C6=O)CC4)CC3)cn2)N1CC(F)(F)F (stereo partly drawn) [K41]
		10.2 nM	17%	40%	417 nM			O=C1CCC(N2Cc3c(ccc4c3OCC43CCN(C4CC5(CCC6(CCN(c7ccc([C@@H]8c9ccc(O)cc9CC[C@@H]8c8ccccc8)cc7)CC6)CC5)C4)CC3)C2=O)C(=O)N1 (stereo partly drawn) [B23]
35%	62%	0.87 nM	34%	55%				O=C1CCC(N2Cc3c(ccc4c3OCC43CCN(CC4(F)CCN(CC5CCN(c6ccc([C@@H]7c8ccc(O)cc8CC[C@@H]7c7ccccc7)cc6)CC5)CC4)CC3)C2=O)C(=O)N1 (stereo partly drawn) [N6]
13%	27%					1.6 nM	70 nM	O=C1CCC(N2Cc3cc4c(cc3C2=O)CCC2(CN(C3CC5(CCN(c6ccc([C@@H]7c8ccc(O)cc8CC[C@@H]7c7ccccc7)cc6)CC5)C3)C2)O4)C(=O)N1 (stereo partly drawn) [M13]

Source: patent EP4656642A1, “ESTROGEN RECEPTOR PROTEOLYSIS TARGETING CHIMERA COMPOUND AND USE THEREOF” (GAN & LEE PHARM CO., LTD, priority 2023, dated 2024)
